Tests used:
Type in all cases: cell-based
[1] = test system: HT-144 (Melanoma); assay: Cancer cell lines assay (Alamar Blue, day 5), HT-144; conditions: Homo sapiens
Procedure: (§1) EXAMPLE. Cancer cell lines assay. Compounds are assayed for IC50 over a range of 50 nM to 1 mM, in triplicate, in standard 96-well plates. Initially, the number of cells in each line to plate on day 0 is determined, in order to have <80% confluency on day 5. Cells are plated on day 0. Cells are allowed to adhere 4 hours prior to adding the compound. On day 5 Alamar Blue is added to the media of the cells at 10% of the total volume of the well and incubated for approximately 4 hours at tissue culture conditions. The Alamar Blue reagent consists of an oxidation-reduction indicator that yields a colorimetric change and a fluorescent signal in response to metabolic activity. The dose response curves is evaluated in a BioTek Synergy 2 plate reader. The readout fluorescence values are then be exported to spreedsheet software, such as Microsoft Excel or GraphPad, and are graphed to show the reduction in relative cell number in response to compounds added to culture. Maximum inhibition is expressed as the maximum of:
(§2) [formula] over all dosages tested for each drug.
(§3) EXAMPLE. Linezolid is diluted in DMSO. One vial is thawed and administered on day 0, at concentrations 10 μM to 1 mM. Paclitaxel (0.1 μM) is used as a positive control. DMSO alone is used as a negative control. On day 5 Alamar Blue is added to the media of the cells at 10% of the total volume of the well and incubated for approximately 4 hours at tissue culture conditions.

[2] = test system: C32 (Melanoma); assay: Cancer cell lines assay (Alamar Blue, day 5), C32; conditions: Homo sapiens, C32 cells
Procedure: as §1, §2
(§4) EXAMPLE. Linezolid is diluted in DMSO. One vial is thawed and administered on day 0, at concentrations 10 μM to 1 mM. Paclitaxel (0.1 μM) is used as a positive control. DMSO alone is used as a negative control. […]

[3] = test system: A172 (Malignant glioma); assay: Cancer cell lines assay (Alamar Blue, day 5), A172; conditions: Homo sapiens
Procedure: as §1, §2, §3

[4] = test system: SW-579 (Thyroid Cancer); assay: Cancer cell lines assay (Alamar Blue, day 5), SW-579; conditions: SW579; SW-579 cells, Linezolid concentration 412 μM, negative control DMSO, p 0.0490; read-out: Linezolid % Maximum inhibition relative to negative control
Procedure: as §1, §2, §4

IC50 ([1]; 120 h, HT-144 (Melanoma) cells, Alamar Blue on day 5, read-out: Linezolid IC50) [µM]	IC50 ([3]; A 172, 120 h, A172 (Malignant glioma) cells, Alamar Blue on day 5, read-out: Linezolid IC50) [µM]	Compound	inhibition at 0.1 µM ([1]; HT-144 cells, 0.1 μM paclitaxel (positive control), read-out: Paclitaxel % Maximum inhibition relative to negative control) [%]	inhibition at 0.1 µM ([2]; 0.1 μM paclitaxel (positive control), read-out: Paclitaxel % Maximum inhibition relative to negative control) [%]	inhibition at 0.1 µM ([3]; A 172, A172 cells, 0.1 μM paclitaxel (positive control), read-out: Paclitaxel % Maximum inhibition relative to negative control) [%]	inhibition at 1000 µM ([1]; HT-144 cells, Linezolid concentration 1 mM, negative control DMSO, p 0.00250, read-out: Linezolid % Maximum inhibition relative to negative control) [%]	inhibition at 1000 µM ([2]; Linezolid concentration 1 mM, negative control DMSO, p 0.000720, read-out: Linezolid % Maximum inhibition relative to negative control) [%]	inhibition at 412 µM [4] [%]	inhibition at 1000 µM ([3]; A 172, A172 cells, Linezolid concentration 1 mM, negative control DMSO, p 6 × 10^−6, read-out: Linezolid % Maximum inhibition relative to negative control) [%]
–	–	CC(=O)O[C@H]1C(=O)[C@@]2(C)[C@H]([C@H](OC(=O)c3ccccc3)[C@]3(O)C[C@H](OC(=O)[C@H](O)[C@@H](NC(=O)c4ccccc4)c4ccccc4)C(C)=C1C3(C)C)[C@]1(OC(C)=O)CO[C@@H]1C[C@@H]2O [Paclitaxel]	86.9	90.8	92.9	–	–	–	–
500	600 to 700	CC(=O)NC[C@H]1CN(c2ccc(N3CCOCC3)c(F)c2)C(=O)O1 [Linezolid]	–	–	–	90.7	26.1	14.5	81.8

Reference: patent publication US9795601B2, “Compositions and methods for cancer treatment” (BIOVISTA, INC., priority 2010, dated 2017)
